According to patent US9045468B2, “2,5-methano- and 2,5-ethano-tetrahydrobenzazepine derivatives and use thereof to block reuptake of norepinephrine, dopamine, and serotonin” (Albany Molecular Research, Inc., priority 2010, dated 2015):

Experiments:
hDAT = hDAT (Homo sapiens (Human), UniProt Q01959); assay: DAT radioligand binding assay ([125I]RTI-55, HEK-293 membranes); conditions: recombinant HEK-293 membranes, [125I]RTI-55; read-out: Binding Affinity (IC50, nM) DAT
Procedure: (§1) Recombinant HEK-293 cells expressing either the hSERT, hDAT, or hNET proteins were harvested from T-175 flasks as follows. The medium was removed from the flasks and the cells rinsed with HBSS without Ca and without Mg. The cells were then incubated for 5-10 minutes in 10 mM Tris-Cl, pH 7.5, 5 mM EDTA before the cells were lifted with a combination of pipetting and scraping, as needed. The cell suspension was collected into centrifuge bottles and homogenized for 30 seconds with a Polytron homogenizer. The suspension was centrifuged for 30 minutes at 32,000×g, 4° C. The supernatant was decanted and the pellet resuspended and homogenized in 50 mM Tris-Cl, pH 7.5, 1 mM EDTA for 10 seconds. The suspension was then centrifuged again for 30 minutes at 32,000×g, 4° C. The supernatant was decanted and the pellet resuspended in 50 mM Tris-Cl, pH 7.5, 1 mM EDTA and briefly homogenized. A Bradford assay (Bio-rad) was performed and the membrane preparation diluted to 2 mg/ml with 50 mM Tris-Cl, pH 7.5, 1 mM EDTA. Aliquots were prepared, and then frozen and stored at −80° C.
Compounds were dissolved in 100% DMSO at a concentration 100 times the desired highest assay concentration, serially diluted 1:3 in 100% DMSO, and 0.4 μl/well of each solution was dispensed to a Nunc polypropylene, round bottom, 384-well plate. […] 20 ul/well of a 2× membrane preparation (12.5 μg/ml in 30 mM sodium phosphate buffer, pH 7.9 at 4° C.) and 20 μl/well of a 2× radioligand solution (250 pM [^125I]RTI-55 in 30 mM sodium phosphate buffer, pH 7.9 at 4° C.) were added to the well and the reaction incubated for 1 hour at room temperature. The contents of the assay plate were then transferred to a Millipore MultiscreenHTS GF/B filter plate which was pretreated with 0.5% PEI for at least one hour. The plate was vacuum-filtered and washed with 7 washes of 100 μl/well 50 mM Tris-Cl, pH 7.5, 120 mM NaCl, 5 mM KCl chilled to 4° C. The filtration and washing were completed in less than 90 seconds. The plates were air-dried overnight, 12 μl/well of MicroScint scintillation fluid added, and the plates counted in a Trilux.
(§2) Each plate was run in triplicate, and the concentration response curve thus generated was fit using the four-parameter dose response equation, Y=Bottom+(Top-Bottom)/(1+10^((Log IC50−X)*HillSlope)) in order to determine the IC50 value for each compound. The radioligand concentration chosen for each assay corresponds to the Kd concentration determined through saturation binding analysis for each assay.

DAT = assay: Ex vivo transporter occupancy assay, DAT ([125I]RTI-55, brain tissue); type: in vivo; conditions: dosed orally, 3 mg/kg, time until sacrifice 3 h
Source text: (§3) The general procedure for brain tissue collection and transporter occupancy assessment is briefly described as follows. Mice were sacrificed by asphyxiation in CO2, rats by decapitation and dogs by IV injection of euthanasia solution. For mice and rats, after the brains were removed from the skull, the forebrain tissue (removal of the brainstem and cerebellum) was used for SERT, NET, and DAT occupancy assessment. In dogs, the striatum was dissected for DAT occupancy and the remaining forebrain tissue (without the striatum, brainstem, and cerebellum) was used for SERT and NET occupancy assessment. The brain tissues were frozen in chilled isopentane and stored at −80° C. until homogenization.
(§4) The brain tissues were thawed and then homogenized using a polytron homogenizer (Kinematica). Sample aliquots were frozen immediately and stored at −80° C. Protein content was measured for each sample using a Coomassie protein assay kit (Pierce).
(§5) On the day of ex vivo binding for occupancy assessment, frozen sample aliquots were thawed and needle homogenized, and 100 μg of the tissue was incubated for SERT, NET, and DAT binding under assay conditions summarized in Table 1. […] The filters were washed twice with ice-cold incubation buffer, punched into a clear plate prior to the addition of 200 ul scintillation fluid per well. Radioligand was measured using a Wallac Microbeta liquid scintillation counter.
(§6) The specific binding was calculated by subtracting the value of the non-specific binding from that of the total binding in each sample. The percent occupancy was calculated as (1−specific binding in drug treated/specific binding in vehicle treated)×100%. […] Nonlinear regression was performed using GraphPad Prism version 3.00 (GraphPad Software, San Diego, Calif.).

hNET = hNET (Homo sapiens (Human), UniProt P23975); assay: NET radioligand binding assay ([3H]nisoxetine, HEK-293 membranes); conditions: recombinant HEK-293 membranes, [3H]nisoxetine; read-out: Binding Affinity (IC50, nM) NET
Sequence of hNET (P23975 whole entry): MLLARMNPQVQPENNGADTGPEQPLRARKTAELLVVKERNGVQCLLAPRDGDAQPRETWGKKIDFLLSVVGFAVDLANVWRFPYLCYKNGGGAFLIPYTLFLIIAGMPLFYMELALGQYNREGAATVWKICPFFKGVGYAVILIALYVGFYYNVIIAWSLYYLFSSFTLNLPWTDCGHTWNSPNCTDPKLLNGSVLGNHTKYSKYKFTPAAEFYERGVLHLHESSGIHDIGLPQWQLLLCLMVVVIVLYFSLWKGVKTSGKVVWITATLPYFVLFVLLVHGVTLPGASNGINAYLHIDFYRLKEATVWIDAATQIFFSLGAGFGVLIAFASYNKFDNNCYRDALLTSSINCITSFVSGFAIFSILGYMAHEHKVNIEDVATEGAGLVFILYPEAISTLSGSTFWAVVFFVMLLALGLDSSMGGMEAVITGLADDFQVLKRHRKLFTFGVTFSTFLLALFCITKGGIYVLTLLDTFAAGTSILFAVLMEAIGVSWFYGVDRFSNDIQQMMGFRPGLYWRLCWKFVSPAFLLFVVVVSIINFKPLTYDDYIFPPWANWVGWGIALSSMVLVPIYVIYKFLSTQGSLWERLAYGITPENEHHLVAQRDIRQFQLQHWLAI
Procedure: as §1, with “The” for “Recombinant HEK-293 cells expressing either the hSERT, hDAT, or hNET proteins were harvested from T-175 flasks as follows. The”
Compounds were dissolved in 100% DMSO at a concentration 100 times the desired highest assay concentration, serially diluted 1:3 in 100% DMSO, and 1.0 μl/well of each solution was dispensed to a Nunc polypropylene, round bottom, 384-well plate. […] 50 μl/well of a 2× membrane preparation (0.4 mg/ml in 50 mM Tris-Cl, pH 7.5, 120 mM NaCl, 5 mM KCl) and 50 μl/well of a 2× radioligand solution (4 nM [^3H]nisoxetine in 50 mM Tris-Cl, pH 7.5, 120 mM NaCl, 5 mM KCl) were added to the well and the reaction incubated for 1 hour at room temperature. The contents of the assay plate were then transferred to a Millipore MultiscreenHTS GF/B filter plate which was pretreated with 0.5% PEI for at least one hour. The plate was vacuum filtered and washed with 7 washes of 100 μl/well 50 mM Tris-Cl, pH 7.5, 120 mM NaCl, 5 mM KCl chilled to 4° C. The filtration and washing were completed in less than 90 seconds. The plates were air-dried overnight, 12 μl/well of MicroScint scintillation fluid added, and the plates counted in a Trilux.
as §2

NET = assay: Ex vivo transporter occupancy assay, NET ([3H]nisoxetine, brain tissue); type: in vivo; conditions: dosed orally, 3 mg/kg, time until sacrifice 3 h
Source text: as §3, §4, §5, §6

SERT = assay: Ex vivo transporter occupancy assay, SERT ([3H]citalopram, brain tissue); type: in vivo; conditions: dosed orally, 3 mg/kg, time until sacrifice 3 h
Source text: as §3, §4
On the day of ex vivo binding for occupancy assessment, frozen sample aliquots were thawed and needle homogenized, and 100 μg of the tissue was incubated for SERT, NET, and DAT binding under assay conditions summarized in Table 1. After incubation, the reactions were terminated by the addition of ice-cold assay buffer and rapid filtration through a Brandel Cell Harvester using FPXLR-196 filters. The filters were washed twice with ice-cold incubation buffer, punched into a clear plate prior to the addition of 200 ul scintillation fluid per well. Radioligand was measured using a Wallac Microbeta liquid scintillation counter.
as §6

hSERT = hSERT (Homo sapiens (Human), UniProt P31645); assay: SERT radioligand binding assay ([125I]RTI-55, HEK-293 membranes); conditions: recombinant HEK-293 membranes, [125I]RTI-55; read-out: Binding Affinity (IC50, nM) SERT
Sequence of hSERT (P31645 whole entry): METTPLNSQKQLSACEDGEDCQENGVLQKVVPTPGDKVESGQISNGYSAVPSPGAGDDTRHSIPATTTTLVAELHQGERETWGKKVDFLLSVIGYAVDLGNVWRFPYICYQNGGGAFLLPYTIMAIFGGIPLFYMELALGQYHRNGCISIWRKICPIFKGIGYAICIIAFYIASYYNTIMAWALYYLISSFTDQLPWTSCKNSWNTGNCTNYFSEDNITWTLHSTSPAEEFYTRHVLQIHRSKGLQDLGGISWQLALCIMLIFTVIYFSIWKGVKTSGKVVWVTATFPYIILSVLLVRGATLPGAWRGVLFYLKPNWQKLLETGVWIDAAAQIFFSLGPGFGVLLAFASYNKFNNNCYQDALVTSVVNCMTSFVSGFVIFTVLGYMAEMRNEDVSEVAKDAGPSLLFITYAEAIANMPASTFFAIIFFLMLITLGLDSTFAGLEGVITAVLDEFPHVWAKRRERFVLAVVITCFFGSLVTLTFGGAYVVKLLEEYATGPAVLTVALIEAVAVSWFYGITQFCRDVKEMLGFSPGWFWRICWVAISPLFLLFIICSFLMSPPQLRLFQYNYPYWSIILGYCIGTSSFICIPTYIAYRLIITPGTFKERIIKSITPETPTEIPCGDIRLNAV
Procedure: as §1, with “The” for “Recombinant HEK-293 cells expressing either the hSERT, hDAT, or hNET proteins were harvested from T-175 flasks as follows. The”
Compounds were dissolved in 100% DMSO at a concentration 100 times the desired highest assay concentration, serially diluted 1:3 in 100% DMSO, and 0.4 μl/well of each solution was dispensed to a Nunc polypropylene, round bottom, 384-well plate. […] The contents of the assay plate were then transferred to a Millipore MultiscreenHTS GF/B filter plate which was pretreated with 0.5% PEI for at least one hour. The plate was vacuum filtered and washed with 7 washes of […] 50 mM Tris-Cl, pH 7.5, 120 mM NaCl, 5 mM KCl chilled to 4° C. The filtration and washing were completed in less than 90 seconds. The plates were air-dried overnight, 12 μl/well of MicroScint scintillation fluid added, and the plates counted in a Trilux.
as §2

Sequence of hDAT (Q01959 whole entry): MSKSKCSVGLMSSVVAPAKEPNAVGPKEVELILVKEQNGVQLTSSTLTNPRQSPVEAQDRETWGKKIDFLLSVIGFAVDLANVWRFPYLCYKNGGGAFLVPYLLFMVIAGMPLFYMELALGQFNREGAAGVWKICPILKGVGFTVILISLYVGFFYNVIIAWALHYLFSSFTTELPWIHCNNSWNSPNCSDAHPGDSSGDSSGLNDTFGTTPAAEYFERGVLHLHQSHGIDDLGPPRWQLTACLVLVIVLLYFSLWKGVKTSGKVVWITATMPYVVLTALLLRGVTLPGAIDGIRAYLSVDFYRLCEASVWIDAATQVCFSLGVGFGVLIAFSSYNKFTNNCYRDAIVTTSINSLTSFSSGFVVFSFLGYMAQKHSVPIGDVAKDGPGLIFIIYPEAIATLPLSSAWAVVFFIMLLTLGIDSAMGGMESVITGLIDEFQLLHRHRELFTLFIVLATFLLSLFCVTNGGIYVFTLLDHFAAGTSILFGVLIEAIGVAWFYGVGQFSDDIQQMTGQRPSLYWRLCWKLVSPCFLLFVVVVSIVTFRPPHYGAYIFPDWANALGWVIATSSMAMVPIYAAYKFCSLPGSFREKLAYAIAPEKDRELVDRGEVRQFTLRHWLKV

SMILES | IC50 (hDAT) [nM] | % Occupancy DAT (DAT) [%] | IC50 (hNET) [nM] | % Occupancy NET (NET) [%] | % Occupancy SERT (SERT) [%] | IC50 (hSERT) [nM]
FC(F)Oc1ccc(-c2ccc3c(c2)CN2CCC3(c3ccc(Cl)cc3)CC2)nn1 [Example 14, 5-(4-chlorophenyl)-8-(6-(difluoromethoxy)pyridazin-3-yl)-2,5-ethano-2,3,4,5-tetrahydro-1H-2-benzo[c]azepine] | 57.3 | 12 | 264 | 0 | 79 | 1.1
FC(F)Oc1ccc(-c2ccc3c(c2)CN2CCC3(c3ccc(Cl)c(Cl)c3)CC2)nn1 [Example 39, 5-(3,4-dichlorophenyl)-8-(6-(difluoromethoxy)pyridazin-3-yl)-2,5-ethano-2,3,4,5-tetrahydro-1H-benzo[c]azepine] | 26.1 | – | 53.5 | 41 | 59 | 3.8
CCS(=O)(=O)N1CCN(c2ccc3c(c2)CN2CCC3(c3ccc(Cl)cc3)CC2)CC1 [Example 30, 5-(4-chlorophenyl)-8-(4-(ethylsulfonyl)piperazin-1-yl)-2,5-ethano-2,3,4,5-tetrahydro-1H-benzo[c]azepine] | 13.6 | – | 55.8 | – | – | 10
Clc1ccc(C23CCN(Cc4cc(-c5ccc6ncnn6c5)ccc42)C3)cc1 (single isomer, unassigned) [3(−), 8-([1,2,4]triazolo[1,5-a]pyridin-6-yl)-5-(4-chlorophenyl)-2,5-methano-2,3,4,5-tetrahydro-1H-benzo[c]azepine] | 141 | – | 443 | – | – | 5.2
Oc1ccc(-c2ccc3c(c2)CN2CCC3(c3ccc(Cl)cc3)C2)nn1 (single isomer, unassigned) [7(+), 6-(5-(4-chlorophenyl)-2,5-methano-2,3,4,5-tetrahydro-1H-benzo[c]azepin-8-yl)pyridazin-3-ol] | 148 | – | 674 | – | – | 62.5
CCS(=O)(=O)N1CCN(c2ccc(C34CCN(CC3)Cc3cc(N5CCN(S(=O)(=O)CC)CC5)ccc34)cc2)CC1 [Example 31, 8-(4-(ethylsulfonyl)piperazin-1-yl)-5-(4-(4-(ethylsulfonyl)piperazin-1-yl)phenyl)-2,5-ethano-2,3,4,5-tetrahydro-1H-benzo[c]azepine] | 4020 | – | 8300 | – | – | 2320
Fc1ccc(C23CCN(Cc4cc(-c5ccc(C(F)(F)F)nn5)ccc42)C3)cc1Cl (single isomer, unassigned) [56(+), 5-(3-chloro-4-fluorophenyl)-2,5-methano-8-(6-(trifluoromethyl)pyridazin-3-yl)-2,3,4,5-tetrahydro-1H-benzo[c]azepine] | 11.4 | – | 78.6 | – | – | 2.4
Clc1ccc(C23CCN(CC2)Cc2cc(OCCCc4ccncc4)ccc23)cc1 [Example 35, 5-(4-chlorophenyl)-2,5-ethano-8-(3-(pyridin-4-yl)propoxy)-2,3,4,5-tetrahydro-1H-benzo[c]azepine] | 205 | – | 54.8 | – | – | 4.2
FC(F)(F)c1ccc(C23CCN(CC2)Cc2cc(Oc4ccc(C(F)(F)F)nn4)ccc23)cc1 [Example 50, 2,5-ethano-5-(4-(trifluoromethyl)phenyl)-8-(6-(trifluoromethyl)pyridazin-3-yloxy)-2,3,4,5-tetrahydro-1H-benzo[c]azepine] | 614 | – | 1050 | – | – | 10.9
Clc1ccc(C23CCN(CC2)Cc2cc(-c4cncnc4)ccc23)cc1 [Example 16, 5-(4-chlorophenyl)-2,5-ethano-8-(pyrimidin-5-yl)-2,3,4,5-tetrahydro-1H-benzo[c]azepine] | 156 | – | 2930 | – | – | 7.3
Clc1ccc(C23CCN(Cc4cc(-c5ccc6ncnn6c5)ccc42)C3)cc1 (single isomer, unassigned) [3(+), 8-([1,2,4]triazolo[1,5-a]pyridin-6-yl)-5-(4-chlorophenyl)-2,5-methano-2,3,4,5-tetrahydro-1H-benzo[c]azepine] | 340 | – | 817 | – | – | 9.4
O=c1n(-c2ccc3c(c2)CN2CCC3(c3ccc(Cl)cc3)CC2)nc2ccccn12 [Example 23, 2-(5-(4-chlorophenyl)-2,5-ethano-2,3,4,5-tetrahydro-1H-benzo[c]azepin-8-yl)-[1,2,4]triazolo[4,3-a]pyridin-3(2H)-one] | 37.5 | – | 176 | – | – | 1.5
Nc1cnc(Oc2ccc3c(c2)CN2CCC3(c3ccc(Cl)cc3)CC2)cn1 [Example 34, 5-(5-(4-chlorophenyl)-2,5-ethano-2,3,4,5-tetrahydro-1H-benzo[c]azepin-8-yloxy)pyrazin-2-amine] | 104 | – | 430 | – | – | 2.3
